Common to all, as to assay type: functional
Holding throughout (set-up): scale not given: the % may be the effect or the level left

The test system of test [1] is HT-29. Nature of the test: Inhibition of VEGF production in human HT-29 cells assessed as VEGF level at 5 ug/ml incubated for 72 hrs by ELISA method relative to control. For orientation: In an ELISA, binding on a coated surface is turned into a signal by an enzyme label.
For test [2], the system named is HT-29. The test is described as follows: Inhibition of Myc mRNA expression in human HT-29 cells assessed as Myc mRNA level at 5 ug/ml incubated for 48 hrs by RT-PCR method relative to control.
Test [3] concerns HT-29. The test is described as follows: Inhibition of VEGF mRNA expression in human HT-29 cells assessed as VEGF mRNA level at 5 ug/ml incubated for 48 hrs by RT-PCR method relative to control.
Test [4] has as its system HT-29. Nature of the test: Inhibition of hTERT mRNA expression in human HT-29 cells assessed as hTERT mRNA level at 5 ug/ml incubated for 48 hrs by RT-PCR method relative to control.
In test [5] the test system is HT-29. Nature of the test: Inhibition of hTERT mRNA expression in human HT-29 cells assessed as hTERT mRNA level at 10 uM incubated for 48 hrs by RT-PCR method relative to control.
The subject of test [6] is HT-29. Nature of the test: Inhibition of hTERT mRNA expression in human HT-29 cells assessed as hTERT mRNA level at 50 nM incubated for 48 hrs by RT-PCR method relative to control.
The subject of test [7] is HT-29. The test is described as follows: Inhibition of Myc mRNA expression in human HT-29 cells assessed as Myc mRNA level at 10 uM incubated for 48 hrs by RT-PCR method relative to control.
In test [8] the test system is HT-29. Nature of the test: Inhibition of VEGF mRNA expression in human HT-29 cells assessed as VEGF mRNA level at 10 uM incubated for 48 hrs by RT-PCR method relative to control.
The test system of test [9] is HT-29. The test is described as follows: Inhibition of Myc mRNA expression in human HT-29 cells assessed as Myc mRNA level at 50 nM incubated for 48 hrs by RT-PCR method relative to control.
In test [10] the test system is HT-29. Nature of the test: Inhibition of VEGF mRNA expression in human HT-29 cells assessed as VEGF mRNA level at 50 nM incubated for 48 hrs by RT-PCR method relative to control.

Each structure is given as a SMILES string.

Turning to `COc1cc2c(c(OC)c1OC)-c1ccc(OC)c(=O)cc1[C@@H](NC(=O)CCCC(=O)OCCCCC[C@@H]1CC=CC(=O)O1)CC2`, the Activity in [1] amounted to 45%; in test [2], 16%; in [3] it was 6%; in test [4], 67%.

Consider `COc1cc2c(c(OC)c1OC)-c1ccc(OC)c(=O)cc1[C@@H](NC(=O)CCCCCCCCCCC(=O)OCCCCC[C@@H]1CC=CC(=O)O1)CC2`, for which the Activity in [1] was 64%; in [5] it was 27%; in test [6] it was 75%; in test [2], 5%; in [7], 13%; in test [3] it was 3%. Besides, the Activity in test [8] was found to be 8%; in test [9], 60%; in test [10] it was 36%; in [4], 19%.

Take `COc1cc2c(c(OC)c1OC)-c1ccc(OC)c(=O)cc1[C@@H](NC(=O)CCCC(=O)OCC[C@H](C[C@H](C)C[C@@H]1CC=CC(=O)O1)OC)CC2`: the Activity is given as 44% in test [1], 97% in test [2], 70% in test [3] and 125% in [4].

As to `COc1cc2c(c(OC)c1OC)-c1ccc(OC)c(=O)cc1[C@@H](NC(=O)CCCCCCCCCCC(=O)OCC[C@H](C[C@H](O)C[C@@H]1CC=CC(=O)O1)OC)CC2`, the Activity in test [1] came to 44%; in test [5], 55%; in [6] it was 81%; in [2], 15%; in test [7], 32%; in [3], 7%. The Activity in test [8] was 9%; in test [9], 94%; in test [10] it was 51%; in test [4], 42%.

Take `CO[C@H](CCO)C[C@H](O)C[C@@H]1CC=CC(=O)O1`: the Activity is on record as 93% in [1]; over 100% in test [5]; over 100% in [6]; 111% in test [2]; 66% in test [7]; 44% in test [3]. Moreover, the Activity in [8] is 40%; in test [9], over 100%; in [10], 90%; in test [4] it was 125%.

Turning to `COc1cc2c(c(OC)c1OC)-c1ccc(OC)c(=O)cc1[C@@H](NC(C)=O)CC2` [COLCHICINE], the Activity in test [1] is recorded as 40%; in test [5] it was 30%; in [6], 43%; in [2], 6%; in test [7], 6%; in test [3], 4%. In addition, the Activity in test [8] was 5%; in [9], 19%; in test [10], 48%; in test [4] it was 20%.

For `C/C=C/C[C@H](C)[C@@H](OC)[C@@H](C)[C@H](O)C[C@H]1OC(=O)C=C[C@H]1CC` [PIRONETIN], the Activity is listed as 50% in [1], 118% in test [2], 48% in [3] and 119% in test [4].

(Values after ChEMBL document CHEMBL3600325, “Inhibitory effect of pironetin analogue/colchicine hybrids on the expression of the VEGF, hTERT and c-Myc genes” (2015).)
